Reference: article PMC10269561, “Absence of Clinically Meaningful Drug-Drug Interactions with Rezafungin: Outcome of Investigations” (Microbiology Spectrum, 2023)
Read-outs that look alike come from different tables or passages of the source.

Experiments:
[1] = Study 2: phase 1 open-label crossover DDI study, plasma PK of oral immunosuppressant/oncology drugs alone vs with i.v. rezafungin; settings: for Magnitude of decrease in Cmax with rezafungin vs drug alone / AUC0–t, geometric mean ratio (drug + rezafungin / drug alone) / AUC0–∞, geometric mean ratio (drug + rezafungin / drug alone) / Cmax, geometric mean ratio (drug + rezafungin / drug alone): mycophenolic acid analyte for mycophenolate mofetil; for AUC0–t, geometric mean ratio (drug + rezafungin / drug alone) / AUC0–∞, geometric mean ratio (drug + rezafungin / drug alone) / Cmax, geometric mean ratio (drug + rezafungin / drug alone): rezafungin 200 mg i.v., geometric LSM ratio x 100, ANOVA
Procedure: (§1) Both were phase 1, single-center, open-label, crossover inpatient studies that were conducted in the United States in healthy adults (study 1, aged 26 to 55 years; study 2, aged 21 to 59 years). The studies were compliant with the International Council for Harmonisation of Technical Requirements for Pharmaceuticals for Human Use E6 guideline for good clinical practice ([54]) and the Declaration of Helsinki. The study protocols were approved by the institutional review board associated with the study site, and all subjects provided written informed consent.
(§2) After screening, subjects were admitted to the CRU on day −17 (prior to the first rezafungin dose) and were discharged on day 22. Rezafungin was dosed via i.v. infusion over 1 h at 400 mg on day 1 and 200 mg on day 8 and day 15. The oral drugs to be tested for interactions were each administered twice on a schedule designed to allow washout between doses: once alone and once while receiving rezafungin (Fig. 4B). The total duration of treatment was approximately 84 days, which included 45 days of screening and 39 days of treatment in the CRU.
(§3) In study 1, predose PK blood samples were collected on each dosing day ≤60 min prior to the administration of the substrate drugs with or without rezafungin. Multiple blood samples were collected relative to each dose, with collection times ranging from 15 min to 168 h postdose, depending on the PK profile of each probe substrate drug (Table S5). For study 2, multiple blood samples were collected, and the timing of collection varied according to the PK profile of each coadministered drug from predose to 96 h postdose (Table S6). PK blood samples were collected for rezafungin at sample times ranging from predose to 168 h postdose.
(§4) For both studies, validated liquid chromatography-tandem mass spectrometry (LC-MS/MS) methods were used for PK assessments to analyze the concentrations of rezafungin and coadministered drugs. All plasma concentrations and actual blood sampling times were subjected to noncompartmental PK analysis. PK parameter calculations were performed using noncompartmental analysis (NCA) (Phoenix WinNonlin version 8.0 or higher). The PK parameters analyzed included Cmax; the time to reach the maximum observed plasma concentration (Tmax); AUC0–t (using the log-linear trapezoidal rule, where t was the last time point with a measurable concentration); AUC0–∞ (calculated as AUC0–t + Clast/λz); the AUC from 0 to 168 h (AUC0–168); the percentage of AUC0–∞ extrapolated (AUC%Extrap); the terminal elimination rate constant, determined by linear regression of the terminal linear segment of the log concentration-versus-time curve (λz); and the elimination half-life (t1/2), calculated as ln(2)/λz.
(§5) The primary analysis of the drug interaction effect on substrate drugs following rezafungin administration was assessed by the ratio of the geometric least-squares (LS) mean of each substrate drug administered with rezafungin to that without rezafungin. […] PK parameters were statistically analyzed using an analysis of variance (ANOVA) model. […] However, noncompliance with these no-effect boundaries was not considered evidence of a significant DDI. Statistical analyses were performed using SAS (version 9.4) and the mixed procedure. Adverse events were descriptively summarized.

[2] = for AUC0–t, geometric LSM value, + rezafungin / AUC0–∞, geometric LSM value, + rezafungin / Cmax, geometric LSM value, + rezafungin / AUC0–t, geometric LSM value, alone / AUC0–∞, geometric LSM value, alone / Cmax, geometric LSM value, alone: Study 1, healthy subjects, plasma, LC-MS/MS, NCA; for AUC0–t, geometric LSM value, alone / AUC0–∞, geometric LSM value, alone / Cmax, geometric LSM value, alone: oral tacrolimus 5 mg or rosuvastatin 5 mg without rezafungin; for AUC0–t, geometric mean ratio (drug + rezafungin / drug alone) / AUC0–∞, geometric mean ratio (drug + rezafungin / drug alone) / Cmax, geometric mean ratio (drug + rezafungin / drug alone): geometric LSM ratio x 100, ANOVA
Procedure: as §1
After screening, subjects were admitted to the clinical research unit (CRU) prior to the first dose of rezafungin (from day −22) and were discharged from the CRU on day 22. Nine oral substrate drugs were administered as part of a cocktail containing two or more drugs once before and once after receiving rezafungin on a schedule designed to allow the washout of the drugs in the cocktail between doses and limit interactions with other drugs (Fig. 4A). […] A loading dose of rezafungin for injection (600 mg) was administered over 1 h on day 1, followed by two once-weekly 400-mg doses over 1 h on days 10 and 15. Due to a short delay in the availability of the investigation study drug, the second once-weekly dose of rezafungin and the second set of oral substrate drugs were administered on day 10 instead of day 8, although the time between doses remained sufficient for all originally planned PK samplings through 96 h postdose and for the adequate washout of the substrate drugs. The total duration of treatment was up to 89 days, including 45 days of screening and 44 days of treatment in the CRU.
as §3, §4, §5

[3] = Study 2 safety and tolerability (TEAEs); settings: Study 2; one subject each
Procedure: as §2
In both studies, the safety population included all subjects who received any amount of the study drug. In study 1, the rezafungin safety population included all subjects who received any amount of rezafungin. Safety assessments included vital signs (temperature, heart rate, blood pressure, and respiratory rate), safety laboratory evaluations (hematology assessment, serum chemistry panel, and urinalysis), physical examinations (complete and symptom directed), and EKGs.
Microbiology Spectrum Supplementary materials
Abbreviations: TEAE = treatment-emergent adverse event.
N = number of subjects in the safety population; n = number of subjects in a sample.
Notes: Each TEAE was counted only once for each subject within each System Organ Class and Preferred Term.

[4] = clinical study, U.S. prescribing information; cited from earlier work
[5] = Study 2, from geometric mean ratio
[6] = Study 2, healthy subjects, oral cyclosporine 200 mg, ibrutinib 280 mg or mycophenolate mofetil 500 mg (analyte mycophenolic acid) without rezafungin, plasma, LC-MS/MS, NCA
[7] = Study 2, healthy subjects, oral ibrutinib 280 mg (day 8) or mycophenolate mofetil 500 mg (day 15, cohort 1; analyte mycophenolic acid) with i.v. rezafungin 200 mg, plasma, LC-MS/MS, NCA
[8] = oral rosuvastatin 5 mg with i.v. rezafungin 400 mg (day 10)
[9] = Study 1, AUC0–t and AUC0–∞, from geometric mean ratio
[10] = Study 1, from geometric mean ratio
[11] = Study 1, rezafungin 400 mg i.v. (day 10 or 15)
[12] = oral tacrolimus 5 mg with i.v. rezafungin 600 mg (day 1)
[13] = Study 1, rezafungin 600 mg i.v.
[14] = Study 2, healthy subjects (cohort 2), oral venetoclax 50 mg with i.v. rezafungin 200 mg (day 15), plasma, LC-MS/MS, NCA
[15] = Study 2, healthy subjects (cohort 2), oral venetoclax 50 mg without rezafungin, plasma, LC-MS/MS, NCA

For `C=CC(=O)N1CCC[C@@H](n2nc(-c3ccc(Oc4ccccc4)cc3)c3c(N)ncnc32)C1` [Ibrutinib], the “Magnitude of decrease in Cmax with rezafungin vs drug alone” value [1, 5] was ~17%.

In the case of `COc1c(C)c2c(c(O)c1C/C=C(\C)CCC(=O)OCCN1CCOCC1)C(=O)OC2` [Mycophenolate mofetil], the “AUC0–t, geometric LSM value, alone” value [1, 6] is reported as 25,299.70 ng · h/mL, the “AUC0–∞, geometric LSM value, alone” value [1, 6] is reported as 27,954.20 ng · h/mL and the “Cmax, geometric LSM value, alone” value [1, 6] is reported as 9,541.20 ng/mL. The “AUC0–t, geometric LSM value, + rezafungin” value [1, 7] was 25,054.90 ng · h/mL, the “AUC0–∞, geometric LSM value, + rezafungin” value [1, 7] was 28,257.00 ng · h/mL and the “Cmax, geometric LSM value, + rezafungin” value [1, 7] was 7,740.58 ng/mL. For the same compound, the “Observation, AUC (change with rezafungin relative to drug alone)” value ([1]; Study 2, class symbol, AUC0–t and AUC0–∞ unless otherwise noted) was “↔ (no change (the ratio of the PK parameter value varied by up to ~10%, and the 90% CI was within 80 to 125%))”, the “AUC0–t, geometric mean ratio (drug + rezafungin / drug alone)” value ([1]; Study 2) was 99.03% and the “AUC0–∞, geometric mean ratio (drug + rezafungin / drug alone)” value ([1]; Study 2) was 101.08%. For the same compound, the “Cmax, geometric mean ratio (drug + rezafungin / drug alone)” value ([1]; Study 2) was 81.13%.

In the case of `COc1c(C)c2c(c(O)c1C/C=C(\C)CCC(=O)O)C(=O)OC2` [Mycophenolic acid], the “Magnitude of decrease in Cmax with rezafungin vs drug alone” value [1, 5] is reported as 19%.

For `CC(C)c1nc(N(C)S(C)(=O)=O)nc(-c2ccc(F)cc2)c1/C=C/[C@@H](O)C[C@@H](O)CC(=O)O` [Rosuvastatin], the “AUC0–t, geometric LSM value, + rezafungin” value [2, 8] was 31,027.38 pg · h/mL, the “AUC0–∞, geometric LSM value, + rezafungin” value [2, 8] was 32,386.11 pg · h/mL and the “Cmax, geometric LSM value, + rezafungin” value [2, 8] was 3,683.66 pg/mL. The “AUC0–t, geometric LSM value, alone” value [2] was 26,949.43 pg · h/mL, the “AUC0–∞, geometric LSM value, alone” value [2] was 28,521.34 pg · h/mL and the “Cmax, geometric LSM value, alone” value [2] was 3,294.35 pg/mL. The “Magnitude of increase in AUC with rezafungin vs drug alone” value [2, 9] was ~15%, the “Magnitude of increase in AUC0–∞ with rezafungin vs drug alone” value [2, 10] was “approximately 14%” and the “Magnitude of increase in Cmax with rezafungin vs drug alone” value [2, 10] was ~12%. The “AUC0–t, geometric mean ratio (drug + rezafungin / drug alone)” value [2, 11] was 115.13%, the “AUC0–∞, geometric mean ratio (drug + rezafungin / drug alone)” value [2, 11] was 113.55% and the “Cmax, geometric mean ratio (drug + rezafungin / drug alone)” value [2, 11] was 111.82%.

For `C=CC[C@@H]1/C=C(\C)C[C@H](C)C[C@H](OC)[C@H]2O[C@@](O)(C(=O)C(=O)N3CCCC[C@H]3C(=O)O[C@H](/C(C)=C/[C@@H]3CC[C@@H](O)[C@H](OC)C3)[C@H](C)[C@@H](O)CC1=O)[C@H](C)C[C@@H]2OC` [Tacrolimus], the “AUC0–t, geometric LSM value, alone” value [2] was 309,698.20 pg · h/mL, the “AUC0–∞, geometric LSM value, alone” value [2] was 328,990.49 pg · h/mL and the “Cmax, geometric LSM value, alone” value [2] was 30,489.62 pg/mL. The “AUC0–t, geometric LSM value, + rezafungin” value [2, 12] was 266,002.13 pg · h/mL, the “AUC0–∞, geometric LSM value, + rezafungin” value [2, 12] was 283,328.47 pg · h/mL and the “Cmax, geometric LSM value, + rezafungin” value [2, 12] was 28,909.40 pg/mL. The “Magnitude of decrease in AUC with rezafungin vs drug alone” value [2, 9] was ~14%, the “Observation, Cmax (change with rezafungin relative to drug alone)” value ([2]; Study 1, class symbol) was “↔ (no change (the ratio of the PK parameter value varied by up to ~10%, and the 90% CI was within 80 to 125%))” and the “AUC0–t, geometric mean ratio (drug + rezafungin / drug alone)” value [2, 13] was 85.89%. For the same compound, the “AUC0–∞, geometric mean ratio (drug + rezafungin / drug alone)” value [2, 13] was 86.12% and the “Cmax, geometric mean ratio (drug + rezafungin / drug alone)” value [2, 13] was 94.82%.

For `CC1(C)CCC(CN2CCN(c3ccc(C(=O)NS(=O)(=O)c4ccc(NCC5CCOCC5)c([N+](=O)[O-])c4)c(Oc4cnc5[nH]ccc5c4)c3)CC2)=C(c2ccc(Cl)cc2)C1` [Venetoclax], the “AUC0–t, geometric LSM value, + rezafungin” value [1, 14] was 2,693.83 pg · h/mL, the “AUC0–∞, geometric LSM value, + rezafungin” value [1, 14] was 2,781.57 pg · h/mL and the “AUC0–t, geometric LSM value, alone” value [1, 15] was 3,004.70 pg · h/mL. For the same compound, the “AUC0–∞, geometric LSM value, alone” value [1, 15] was 3,082.58 pg · h/mL, the “Magnitude of decrease in AUC with rezafungin vs drug alone” value ([1]; Study 2, AUC0–t and AUC0–∞, from geometric mean ratio) was ~10% and the “Observation, Cmax (change with rezafungin relative to drug alone)” value ([1]; Study 2, class symbol) was “↔ (no change (the ratio of the PK parameter value varied by up to ~10%, and the 90% CI was within 80 to 125%))”. The “AUC0–t, geometric mean ratio (drug + rezafungin / drug alone)” value ([1]; Study 2) was 89.65%, the “AUC0–∞, geometric mean ratio (drug + rezafungin / drug alone)” value ([1]; Study 2) was 90.24% and the “Cmax, geometric mean ratio (drug + rezafungin / drug alone)” value ([1]; Study 2) was 94.84%. The “severe TEAE deemed by the investigator to be related to the drug” value [3] was “abdominal pain”.

For Caspofungin, the “increase in AUC of caspofungin by cyclosporine” value [4] is given as “approximately 35%” and the “reduction of trough concentrations of caspofungin by rifampicin” value [4] is given as 30%.
